The text below walks through data of ChEMBL document CHEMBL1201862, “PubChem BioAssay data set” (2004).

The term IC50 denotes the concentration needed to halve the response being measured. The GI50 is the concentration at which growth is held to half of that of the control. Broadly, the AC50 is the concentration at which the activity in the assay is half-maximal. As a reminder, the EC50 is the concentration giving half of the maximal effect.

The source made the active and inactive calls. Bounds are passed on as bounds.

For experiment [1], the target named is Albumin (Bos taurus, UniProt P02769). Briefly: Counterscreen for inhibitors of T-cell receptor (TCR)-CD3 interaction: Fluorescence-based biochemical high throughput dose response assay to identify inhibitors of T-cell receptor (TCR)-CD3 interaction using a TAMRA-labeled BSA probe. It counts as functional. (In general: The purpose of a counterscreen is to sort out artefacts and off-target activity.)

Experiment [2] addresses T1, Sentrin-specific protease 7 (Homo sapiens, UniProt Q9BQF6).
T1 sequence (Q9BQF6 whole entry): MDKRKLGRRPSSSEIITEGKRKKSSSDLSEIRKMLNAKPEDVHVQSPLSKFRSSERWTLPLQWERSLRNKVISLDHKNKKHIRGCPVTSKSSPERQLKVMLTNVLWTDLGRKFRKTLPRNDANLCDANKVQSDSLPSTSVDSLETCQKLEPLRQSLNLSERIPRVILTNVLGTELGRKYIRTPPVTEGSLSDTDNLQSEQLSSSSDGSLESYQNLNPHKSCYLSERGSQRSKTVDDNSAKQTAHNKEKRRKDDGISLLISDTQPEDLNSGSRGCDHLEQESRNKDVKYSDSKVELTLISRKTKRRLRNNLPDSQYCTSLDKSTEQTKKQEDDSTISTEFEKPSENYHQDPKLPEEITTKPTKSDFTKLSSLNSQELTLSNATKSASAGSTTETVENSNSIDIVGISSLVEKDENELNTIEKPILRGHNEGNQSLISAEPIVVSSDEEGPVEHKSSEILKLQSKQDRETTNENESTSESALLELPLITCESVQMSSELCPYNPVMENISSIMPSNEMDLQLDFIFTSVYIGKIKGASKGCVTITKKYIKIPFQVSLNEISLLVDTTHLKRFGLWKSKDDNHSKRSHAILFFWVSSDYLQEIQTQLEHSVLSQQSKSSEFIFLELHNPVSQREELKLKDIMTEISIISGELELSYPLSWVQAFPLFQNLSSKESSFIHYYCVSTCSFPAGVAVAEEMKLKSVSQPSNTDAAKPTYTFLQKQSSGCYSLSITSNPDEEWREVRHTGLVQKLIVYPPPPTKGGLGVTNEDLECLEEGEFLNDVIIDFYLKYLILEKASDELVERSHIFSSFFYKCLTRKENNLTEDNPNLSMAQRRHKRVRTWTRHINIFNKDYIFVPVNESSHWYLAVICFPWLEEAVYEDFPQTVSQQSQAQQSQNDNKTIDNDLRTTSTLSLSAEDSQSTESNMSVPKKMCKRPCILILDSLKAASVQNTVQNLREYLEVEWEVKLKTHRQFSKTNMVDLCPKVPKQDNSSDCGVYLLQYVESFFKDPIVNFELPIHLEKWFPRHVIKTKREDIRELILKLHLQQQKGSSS
Briefly: SENP7 protease inhibitors, SAR follow-up, biochemical, luminescence (AID 504497). In kind it is functional.

For experiment [3], the target named is T2, Sentrin-specific protease 8 (Homo sapiens, UniProt Q96LD8).
T2 sequence (Q96LD8 whole entry): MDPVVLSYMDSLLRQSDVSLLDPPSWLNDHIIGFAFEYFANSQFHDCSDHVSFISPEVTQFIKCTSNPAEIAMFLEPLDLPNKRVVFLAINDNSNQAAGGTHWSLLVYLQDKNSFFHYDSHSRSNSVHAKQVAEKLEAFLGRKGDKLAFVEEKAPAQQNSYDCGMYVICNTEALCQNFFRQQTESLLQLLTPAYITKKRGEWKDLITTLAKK
Briefly: SENP8 protease inhibitors, SAR follow-up, biochemical, luminescence (AID 504501). In kind it is functional.

Experiment [4] deals with T3, Sentrin-specific protease 6 (Homo sapiens, UniProt Q9GZR1).
T3 sequence (Q9GZR1 whole entry): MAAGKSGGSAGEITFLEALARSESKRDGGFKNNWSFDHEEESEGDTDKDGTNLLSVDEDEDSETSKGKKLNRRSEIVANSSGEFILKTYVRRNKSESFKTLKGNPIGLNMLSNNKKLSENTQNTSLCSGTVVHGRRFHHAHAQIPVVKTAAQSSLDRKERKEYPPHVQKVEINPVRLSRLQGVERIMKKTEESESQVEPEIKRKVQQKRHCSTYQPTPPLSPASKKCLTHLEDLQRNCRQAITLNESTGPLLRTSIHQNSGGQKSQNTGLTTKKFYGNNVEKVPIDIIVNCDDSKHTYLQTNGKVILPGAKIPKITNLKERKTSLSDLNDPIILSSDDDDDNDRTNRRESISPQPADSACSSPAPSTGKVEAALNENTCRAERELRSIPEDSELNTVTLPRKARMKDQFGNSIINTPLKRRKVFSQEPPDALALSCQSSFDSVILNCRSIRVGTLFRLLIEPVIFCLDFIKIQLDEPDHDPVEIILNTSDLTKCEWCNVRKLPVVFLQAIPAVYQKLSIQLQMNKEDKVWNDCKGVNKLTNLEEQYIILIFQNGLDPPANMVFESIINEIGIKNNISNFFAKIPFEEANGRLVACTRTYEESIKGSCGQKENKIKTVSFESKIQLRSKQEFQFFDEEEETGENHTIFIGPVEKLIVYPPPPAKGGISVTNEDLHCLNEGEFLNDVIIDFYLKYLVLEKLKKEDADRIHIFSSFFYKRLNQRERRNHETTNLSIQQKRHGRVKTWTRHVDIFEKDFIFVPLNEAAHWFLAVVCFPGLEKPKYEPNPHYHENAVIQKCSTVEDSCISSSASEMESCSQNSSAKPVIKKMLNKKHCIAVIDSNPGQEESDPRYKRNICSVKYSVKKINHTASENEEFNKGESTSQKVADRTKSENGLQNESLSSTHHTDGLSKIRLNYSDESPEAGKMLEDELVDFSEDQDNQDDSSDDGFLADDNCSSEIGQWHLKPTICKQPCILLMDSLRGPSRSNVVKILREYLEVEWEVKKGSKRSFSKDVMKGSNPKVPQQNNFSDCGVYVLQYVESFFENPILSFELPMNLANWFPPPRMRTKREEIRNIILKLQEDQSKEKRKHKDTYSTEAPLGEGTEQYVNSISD
Briefly: SAR Analysis of small molecule inhibitors of Sentrin-specific protease 6 (SENP6) using a Luminescent assay. [Related pubchem assays (depositor defined):AID2582, AID2599]. It counts as functional.

For experiment [5], the target named is T4, Caspase-3 (Homo sapiens, UniProt P42574).
T4 sequence (P42574 whole entry): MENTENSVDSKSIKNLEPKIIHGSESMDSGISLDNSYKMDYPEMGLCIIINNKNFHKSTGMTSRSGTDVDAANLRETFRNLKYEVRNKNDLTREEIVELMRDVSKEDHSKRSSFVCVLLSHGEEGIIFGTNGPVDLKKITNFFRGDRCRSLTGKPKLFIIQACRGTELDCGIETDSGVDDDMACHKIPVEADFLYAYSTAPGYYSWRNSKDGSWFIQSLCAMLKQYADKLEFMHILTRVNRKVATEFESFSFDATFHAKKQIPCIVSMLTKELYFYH
Briefly: SAR Analysis of small molecule inhibitors of Sentrin-specific proteases (SENPs) using a Caspase-3 Selectivity assay. [Related pubchem assays (depositor defined):AID2540, AID2599, AID434973, AID489001]. In kind it is functional.

Experiment [6] relates to SN12K1. Description: cells. In kind it is functional. Conditions: Homo sapiens, SN12K1.
Experiment [7] deals with P388. Description: cells. It counts as functional. Conditions: Mus musculus.
Experiment [8] has as its system P388/ADR. Briefly: cells. In kind it is functional. The note with it: Mus musculus.
A short description of experiment [9]: miR-122 activators in hepatoma reporter cells, dose response, cell-based, Huh7 psiCHECK-miR122, Renilla luciferase, cherry-picked (AID 651956).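 Also: huh7 hepatoma cells stably carrying a psiCHECK-2 miR-122 sensor plasmid; renilla luciferase signal reporting endogenous miR-122 activity after 48 h compound exposure.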 It counts as functional.
Experiment [10] in a line: intracellular Trypanosoma cruzi inhibitors in host cells – cell-based, plate reader, cherry-pick samples, set 3, dose response (AID 651818).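 Also: compounds incubated with infected cells for about four days.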 It counts as functional.
A short description of experiment [11]: NIH-3T3 fibroblast cytotoxicity, dose response, cytotoxicity control, cell-based, fluorescence, Alamar Blue, secondary assay (AID 2327).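 Also: NIH-3T3 mouse fibroblasts cultured with fluconazole at 8 µg/mL.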 It counts as functional. For orientation: Alamar Blue is a resazurin reagent that responds to reducing activity.
The target in experiment [12] is T5, Fatty acid synthase (Homo sapiens, UniProt P49327). Briefly: FAS thioesterase domain inhibitors, dose response, biochemical, kinetic fluorescence intensity (AID 624326).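 Also: rate of fluorescence rise from hydrolysis of a fluorogenic O-methyl fluorescein ester substrate.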 It counts as functional.
Experiment [13] relates to Streptococcus sp. 'group A'. Description: growth inhibition of control SK(-) GAS strain, dose response, counter-screen for streptokinase expression inhibitor project, luminescence, kanamycin, BacTiterGlo, confirmation (AID 1900). In kind it is functional, organism-based.
Experiment [14] has as its system Streptococcus. Briefly: Group A Streptococcus viability loss, dose response, counter-screen for streptokinase expression inhibitor project, luminescence, BacTiterGlo (AID 1915).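 Also: potency for reduction of bacterial viability or growth.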 In kind it is functional, organism-based.
For experiment [15], the target named is T5, Fatty acid synthase. Description: FAS thioesterase domain inhibitors, dose response, biochemical, endpoint fluorescence intensity, uHTS hits (AID 624327).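 Also: fluorescence from hydrolysis of an O-methyl fluorescein acyl ester substrate by the enzyme.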 In kind it is functional.
Experiment [16] can be described thus: C. albicans growth with fluconazole, confirmation, fluorescence, retest (AID 2467). It counts as functional, cell-based.

T5 sequence (P49327 whole entry, the tested form may be a part): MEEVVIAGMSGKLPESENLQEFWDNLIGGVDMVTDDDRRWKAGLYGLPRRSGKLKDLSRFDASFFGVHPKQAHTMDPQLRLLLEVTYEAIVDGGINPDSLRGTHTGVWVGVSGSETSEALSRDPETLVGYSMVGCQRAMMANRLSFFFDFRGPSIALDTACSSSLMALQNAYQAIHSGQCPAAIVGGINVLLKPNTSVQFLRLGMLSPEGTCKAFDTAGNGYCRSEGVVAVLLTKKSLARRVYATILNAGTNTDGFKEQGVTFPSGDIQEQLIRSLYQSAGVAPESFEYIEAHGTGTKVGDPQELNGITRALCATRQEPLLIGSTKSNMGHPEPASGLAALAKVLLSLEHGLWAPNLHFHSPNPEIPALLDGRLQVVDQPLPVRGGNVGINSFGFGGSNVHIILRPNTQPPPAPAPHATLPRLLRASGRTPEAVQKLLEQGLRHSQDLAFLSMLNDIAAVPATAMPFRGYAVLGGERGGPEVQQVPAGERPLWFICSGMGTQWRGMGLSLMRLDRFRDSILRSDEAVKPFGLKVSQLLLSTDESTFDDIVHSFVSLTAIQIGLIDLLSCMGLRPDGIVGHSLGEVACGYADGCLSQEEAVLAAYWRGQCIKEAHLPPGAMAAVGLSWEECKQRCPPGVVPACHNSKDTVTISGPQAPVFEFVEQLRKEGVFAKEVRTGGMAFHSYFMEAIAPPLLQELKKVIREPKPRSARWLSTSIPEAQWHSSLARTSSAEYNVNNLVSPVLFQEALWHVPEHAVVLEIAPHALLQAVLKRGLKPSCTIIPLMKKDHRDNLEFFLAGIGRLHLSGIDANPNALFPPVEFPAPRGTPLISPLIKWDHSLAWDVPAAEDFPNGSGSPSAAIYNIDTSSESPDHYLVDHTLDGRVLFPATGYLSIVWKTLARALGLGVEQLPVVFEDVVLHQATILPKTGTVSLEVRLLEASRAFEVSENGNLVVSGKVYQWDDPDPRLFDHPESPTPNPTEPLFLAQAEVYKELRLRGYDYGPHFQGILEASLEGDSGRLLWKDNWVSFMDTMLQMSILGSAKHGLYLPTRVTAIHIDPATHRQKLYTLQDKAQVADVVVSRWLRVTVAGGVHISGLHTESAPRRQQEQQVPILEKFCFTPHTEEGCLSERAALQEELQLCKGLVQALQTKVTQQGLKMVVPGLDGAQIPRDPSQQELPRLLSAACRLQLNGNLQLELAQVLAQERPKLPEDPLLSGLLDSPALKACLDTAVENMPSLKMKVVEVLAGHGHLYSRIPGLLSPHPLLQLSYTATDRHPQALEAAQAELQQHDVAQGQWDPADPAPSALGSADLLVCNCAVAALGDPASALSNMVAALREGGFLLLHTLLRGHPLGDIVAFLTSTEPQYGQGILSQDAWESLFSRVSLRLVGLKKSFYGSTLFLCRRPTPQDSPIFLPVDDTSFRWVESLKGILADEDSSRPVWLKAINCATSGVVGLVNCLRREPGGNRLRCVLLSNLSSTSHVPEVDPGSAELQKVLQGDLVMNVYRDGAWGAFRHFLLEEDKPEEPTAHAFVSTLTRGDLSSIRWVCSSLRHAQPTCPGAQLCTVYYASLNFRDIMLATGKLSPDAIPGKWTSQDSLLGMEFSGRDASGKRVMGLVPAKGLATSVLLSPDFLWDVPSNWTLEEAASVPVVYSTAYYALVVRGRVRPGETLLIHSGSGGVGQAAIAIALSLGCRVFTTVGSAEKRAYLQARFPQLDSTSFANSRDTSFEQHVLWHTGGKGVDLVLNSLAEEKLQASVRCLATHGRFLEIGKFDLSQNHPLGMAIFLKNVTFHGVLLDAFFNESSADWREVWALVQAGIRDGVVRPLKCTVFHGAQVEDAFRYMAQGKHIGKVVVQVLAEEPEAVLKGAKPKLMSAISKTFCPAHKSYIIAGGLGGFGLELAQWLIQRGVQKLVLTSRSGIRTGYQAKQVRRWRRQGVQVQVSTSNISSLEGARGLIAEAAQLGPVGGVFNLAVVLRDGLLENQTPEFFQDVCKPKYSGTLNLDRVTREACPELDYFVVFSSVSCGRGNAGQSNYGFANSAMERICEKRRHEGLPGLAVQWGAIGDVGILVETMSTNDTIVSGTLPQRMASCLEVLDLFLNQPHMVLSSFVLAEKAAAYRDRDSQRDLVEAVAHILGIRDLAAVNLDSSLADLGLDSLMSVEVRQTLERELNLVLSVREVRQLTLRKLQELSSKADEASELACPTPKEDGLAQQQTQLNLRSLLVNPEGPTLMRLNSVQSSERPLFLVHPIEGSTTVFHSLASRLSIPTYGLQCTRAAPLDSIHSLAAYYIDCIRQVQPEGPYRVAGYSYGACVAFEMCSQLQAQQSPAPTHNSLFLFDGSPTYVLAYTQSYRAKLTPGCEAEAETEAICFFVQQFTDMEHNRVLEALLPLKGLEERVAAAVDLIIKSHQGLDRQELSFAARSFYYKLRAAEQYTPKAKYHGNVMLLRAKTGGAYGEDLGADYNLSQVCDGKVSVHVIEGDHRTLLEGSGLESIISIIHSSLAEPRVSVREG
Sequence of Albumin (P02769 whole entry): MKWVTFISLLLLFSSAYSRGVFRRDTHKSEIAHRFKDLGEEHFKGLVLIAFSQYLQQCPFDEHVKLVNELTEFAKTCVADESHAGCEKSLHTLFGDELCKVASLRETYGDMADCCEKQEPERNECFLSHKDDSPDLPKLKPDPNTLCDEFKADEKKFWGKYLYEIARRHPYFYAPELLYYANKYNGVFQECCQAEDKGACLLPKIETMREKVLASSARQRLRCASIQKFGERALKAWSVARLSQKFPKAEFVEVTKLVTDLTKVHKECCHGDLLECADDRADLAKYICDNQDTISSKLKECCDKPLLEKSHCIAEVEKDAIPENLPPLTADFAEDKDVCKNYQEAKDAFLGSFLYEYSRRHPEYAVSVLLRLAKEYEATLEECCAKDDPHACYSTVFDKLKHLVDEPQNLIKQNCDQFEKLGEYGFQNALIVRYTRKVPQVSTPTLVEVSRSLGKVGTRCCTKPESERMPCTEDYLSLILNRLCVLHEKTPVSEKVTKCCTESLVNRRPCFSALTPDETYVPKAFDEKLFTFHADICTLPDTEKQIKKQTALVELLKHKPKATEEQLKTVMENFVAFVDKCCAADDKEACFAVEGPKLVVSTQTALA

Consider `CC(=O)c1cccc(NC(=O)C(OC(=O)c2cccc(S(=O)(=O)N(C)c3ccccc3)c2)c2ccccc2)c1` (stereo not drawn), for which the IC50 in experiment [1] is > 94.1 µM (inactive).

Take `COc1ccc(C(=O)NN=c2c(=O)c3ccccc3c2=O)cc1`: the IC50 is > 99 µM (inactive) in experiment [2], > 99 µM (inactive) in experiment [3], 4.15 µM (active) in experiment [4] and > 99 µM (inactive) in experiment [5].

On to `Fc1ccc(N/N=C/c2c[nH]c3ccccc23)cc1`, for which the IC50 in experiment [2] is 27.2 µM (active); in experiment [3] it was 45.2 µM (active); in experiment [4], 42.2 µM (active); in [5] it was > 99 µM (inactive).

Consider `O=C(O)CCN1C(=O)/C(=C/c2cccc(OCC(=O)Nc3ccc(Cl)cc3)c2)SC1=S`, for which the IC50 in [2] is 78.2 µM (active); in [3], 92.8 µM (active); in experiment [4], 62.1 µM (active); in [5] it was > 99 µM (inactive).

As to `O=C(Nc1ccc(F)cc1)c1ccc2c(c1)OCO2`, the concentration for half-maximal inhibition (IC50) in experiment [2] was 2.75 µM (active); in experiment [3], 8.03 µM (active); in experiment [4], 7.53 µM (active); in experiment [5] it was 1.92 µM (active).

With `O=C1ON(Cc2ccccc2)C(c2ccccc2)N1c1ccccc1` (stereo not drawn), the values for the GI50 in experiment [6], in [7] and in [8] were > 100 µM (inactive), 7.45 µM (inactive) and 54 µM (inactive), respectively.

As for `O=NN1C(c2ccccc2)CCCC1c1ccccc1` (stereo not drawn), the figures for the GI50 in experiment [6], in experiment [7] and in experiment [8] were > 63.5 µM (inactive), 27.5 µM (inactive) and 31.8 µM (inactive), respectively.

`COC(=O)c1ccc(/N=N/N(C)COc2ccc([N+](=O)[O-])cc2)cc1`: the GI50 is 40.2 µM (inactive) in experiment [6], 37.7 µM (inactive) in experiment [7] and 23.6 µM (inactive) in [8].

On to `COC1=C(C)C(=O)C2=C(C1=O)C1C3CC4=C(C(=O)C(OC)=C(C)C4=O)C(CNC(=O)C(C)O)N3C(C#N)C(C2)N1C` (stereo not drawn), for which the figures for the GI50 in experiment [6], in experiment [7] and in experiment [8] were < 0.01 µM (active), < 0.01 µM (active) and 0.203 µM (active), respectively.

For `O=S(=O)(O)c1ccc(/N=N\c2ccc(/N=N/c3ccc(/C=C/c4ccc(/N=[N+](\[O-])c5ccc(/C=C/c6ccc(/N=N/c7ccc(/N=N/c8ccc(S(=O)(=O)O)cc8)c8ccccc78)cc6S(=O)(=O)O)c(S(=O)(=O)O)c5)cc4S(=O)(=O)O)c(S(=O)(=O)O)c3)c3ccccc23)cc1`, the GI50 in experiment [6] and in [7] was > 100 µM (inactive) in each case.

For the compound `C/C=C/c1ccc([C@@H]2[C@@H](CO)N(C(=O)Cc3cccnc3)[C@H]2CNC(C)=O)cc1`, in [9], the half-maximal activity concentration (AC50) is 28.6 µM (active).

For `C[C@@H]1CN([C@@H](C)CO)C(=O)c2cccc(NC(=O)Nc3ccc(C(F)(F)F)cc3)c2O[C@H]1CN(C)Cc1ccc(Cl)c(Cl)c1`, the concentration at half-maximal activity (AC50) in [10] was 0.919 µM (active).

As to `C[C@H]1CN([C@@H](C)CO)C(=O)c2cc(C#CC3CCCC3)cnc2O[C@H]1CN(C)C(=O)Cc1ccccn1`, the half-maximal activity concentration (AC50) in experiment [9] is 21.3 µM (active).

In the case of `C[C@@H]1CN([C@H](C)CO)C(=O)Cc2cc(NC(=O)Cc3cn(C)c4ccccc34)ccc2O[C@@H]1CN(C)Cc1ccc(Cl)c(Cl)c1`, the half-maximal activity concentration (AC50) in experiment [10] is 5.18 µM (active).

As for `C[C@H](CO)N1C[C@H](C)[C@H](CN(C)CC2CCCCC2)Oc2ccc(NC(=O)Nc3ccc(C(F)(F)F)cc3)cc2CC1=O`, the AC50 in experiment [10] was 2.72 µM (active).

`O=C(N/N=C/c1cc([N+](=O)[O-])ccc1O)/C(=C\c1cccs1)NC(=O)c1ccccc1`: the EC50 in [11] is > 160 µM (inactive); in experiment [13] it was 0.76 µM (active); in [14], 2.16 µM (active); in experiment [16] it was 3.32 µM (active). The IC50 in [12] is 13.8 µM (active); in experiment [1], > 94.1 µM (inactive); in experiment [15], 15.2 µM (active).
